The source of these data is publication PMC7802229, “Alkaloid and benzopyran compounds of Melicope latifolia fruit exhibit anti-hepatitis C virus activities” (BMC Complementary Medicine and Therapies, 2021).

≈ marks a conversion by molar mass, not a printed value. Entries after “also recorded” stand apart in the source; their conditions may differ. Where two headings read alike, the source gives them in different places.

As usually defined, the IC50 is the concentration that gives 50% inhibition. The CC50 is the concentration giving 50% cytotoxicity. A lower CC50 goes with greater toxicity to the cells. One may read the inhibition as the drop in the measured response relative to a control, in per cent.

In one data set the test system is HCV JFH1a. The data set can be described thus: Antiviral activity assay (HCV infection of Huh7it-1 cells, titre by immunostaining). The format is cell-based, hepatitis C virus (genotype 2a). Conditions: for IC50: Hepatitis C virus, read-out: IC50 (anti-HCV activity); for Anti-HCV activity in words: highest concentration examined 50 μg/ml. The method, then: Hepatocyte cells of Huh7it-1 [18] were cultivated in DMEM-Dulbeco’s Modiffied Eagle Medium (GIBCO Invitrogen). The medium was supplemented with 10% Fetal Bovine Serum (FBS, GIBCO-Invitrogen), 0.15 mg/ml kanamycin solution (SIGMA) and 1x Non-Essential Amino Acids (NEAA, GIBCO-Invitrogen). The cell culture was incubated in 5% CO2 at 37 °C. HCV JFH1a was propagated in Huh7it-1 suspended in 4 ml JFH1 suspension and 4 ml DMEM and was incubated at 37 °C in 5% CO2 for 4 h. The suspension was divided into eight flasks and the supernatant was harvested on the third day. The supernatant was concentrated and examined for its viral titration and stored at − 80 °C [10].
The hepatocyte cells of Huh7it-1 were seeded on a 48 well plate with a cell density of 5.4 × 10^4 and incubated for 24 h. […] The supernatant was removed and washed with medium and placed back into solutions containing the same concentrations of extract. The cultures were then incubated for 48 h and the supernatant was taken to examine the titer infection of the sample by immunostaining.
(§1) Viral titration was performed by serially diluting the culture supernatant in DMEM medium and inoculating onto Huh7it-1 cells. After incubation for 41 h, the cells were fixed by 3.7% formaldehyde and permeabilized with 0.5% triton X-100 for 10 min. First antibody (HCV infected serum patient) was used in 1% bovine serum albumin (BSA) /2%BlockIce/ phosphate buffer saline (PBS) with a 300x dilution then incubated for 60 min. Second antibody (HRP-Goat anti human) was used in 1%BSA/2%BlockIce/PBS with a 400x dilution (50 μl/well) and then incubated for 60 min at room temperature. To visualize the infectious foci, 3,3′-diaminobenzidine (DAB) staining (DAB Thermo Scientific, USA) was used for 15 min until a brown color was observed. SPSS probit was used to calculate inhibition concentration 50% (IC50) values.

The next data set is described as follows: Cytotoxicity assay (MTT). Conditions: human, Huh7it-1 cells, mean ± SD of triplicate. It counts as cell-based. The method, then:
The cytotoxicity analysis was assessed using MTT assay 3-(4,5-Dimethylthiazol-2-Yl)-2,5-Diphenyltetrazolium Bromide. Solutions with extract concentrations of 1000, 400, 100, 50, 10, 1and […] were added onto Huh7it-1 cells in 96 well plates. After 46 h incubation, the medium was removed and 150 μl/well of 10% MTT was added then incubated for 4 h. The purple precipitates were then dissolved in dimethyl sulfoxide (DMSO). The purple solution was measured for UV absorbance using a microplate reader at 560 nm. SPSS probit was used to calculate the cytotoxic concentration 50% (CC50).

Data set [1] relates to murine leukemia P-388 cells. On the set-up: method as in PMID 34498963. The settings on record: cited from earlier work.
In data set [2] the test system is HCV life cycle (entry / post-entry). The data set can be described thus: Time-of-addition experiment. It counts as cell-based. The settings on record: 25 μg/ml; for inhibition at 25 µg/mL: Hepatitis C virus, mean ± SD of triplicate; for Mode of action: time of addition. As for the experimental part: A time addition experiment was performed to analyze the effect of the extract on the HCV life cycle. Entry inhibition was conducted by treated cells with extracts during viral inoculation to evaluate the inhibition in binding, entry and endocytosis. Post entry inhibition was conducted by treating cells with the extracts after viral inoculation. Supernatants were collected and viral titration and immunostaining was used to assess the mode of action.
as §1

A further data set relates to HCV NS3 protein. The data set can be described thus: Immunoblotting of HCV NS3 protein in infected Huh7it cells. It counts as cell-based, hepatitis C virus. The settings on record: Huh7it-HCV infected cells MOI 0.5, various concentrations, 48 h. The method, then:
Huh7it-1 cells were lysed with Ripa buffer and the amount of protein was checked using a bichincronic acid (BCA) assay kit. The proteins were separated in (sodium dodecyl sulfate polyacrylamide gel electrophoresis (SDS-PAGE) gel and transferred onto a PVDF membrane (Millipore, Bed-ford, MA, USA). Five percent skimmed milk was added to block non-specific binding and incubated for 60 min. First antibody, HCV NS3-specific mouse monoclonal antibody (clone H23; Abcam, Cambridge, MA, USA) and glyceraldehyde-3-phosphate dehydrogenase (GAPDH) antibody (MBL) was added and incubated for 1 h. The 0.05% PBST was used for membrane washing. Second antibody, HRP-conjugated goat anti mouse immunoglobulin (MBL) was incubated for 1 h and the respective protein was visualized using Clarity Western ECL substrate (Biorad). The chemical luminescence was detected using ImageQuant LAS 4000 (GE healthcare).
Culture of Huh7it-HCV infected cells (MOI = 0.5) was treated with various concentration of compounds. After 48 h of incubation, cells were subjected to western blot analysis using monoclonal antibody against HCV NS3 protein. GAPDH served as an internal control
A general note: Immunoblotting shows a protein as a band on a membrane.

For a further data set, the system named is brine shrimp larvae. Further details: method as in PMID 19483341. Conditions: cited from earlier work.
The test system of data set [3] is N-formylmethionylleucylphenylalanine-induced superoxide production. Further details: method as in PMID 17822293. Conditions: cited from earlier work.
Where [4] appears, read: Huh7it-1 cells, HCV JFH1a MOI 0.1, 48 h, mean ± SD of triplicate.
The mark [5] stands for this setting: read-out: % Inhibition During inoculation.
Where [6] appears, read: read-out: % Inhibition During+Post inoculation.
[7] abbreviates: read-out: % Inhibition Post inoculation.

As to `COc1cc(O)c(C(C)=O)c2c1C=CC(C)(C)O2` [Alloevodionol], the IC50 in the data set with HCV JFH1a (setting [4]) came to 41.1 ± 3.1 µg/mL (≈ 166 µM). Also, the “Anti-HCV activity in words” value in the data set on HCV JFH1a (Huh7it-1 cells) is reported as “less active; also recorded: moderate inhibition”. Further, in the data set “Cytotoxicity assay (MTT)”, the cytotoxic concentration (CC50) at 46 h is above 1000 µg/mL.

Take `COc1cc2oc(=O)ccc2c2c1C=CC(C)(C)O2` [Alloxanthoxyletin]: the IC50 in the data set with HCV JFH1a (setting [4]) was 21.7 ± 2.2 µg/mL (≈ 84.1 µM). In “Cytotoxicity assay (MTT)”, the 50% cytotoxic concentration (CC50) at 46 h was 93 ± 3 µg/mL (≈ 360 µM).

For the compound `COc1c2ccoc2c(OC)c2oc(=O)ccc12` [Isopimpinellin], the IC50 in the data set on HCV JFH1a (48 h) was above 50 µg/mL. The “Anti-HCV activity in words” value in the data set on HCV JFH1a (Huh7it-1 cells) was “less active; also recorded: did not reveal anti-HCV activities”. This compound came in with a CC50 at 46 h in “Cytotoxicity assay (MTT)” above 1000 µg/mL.

On to `COc1cc2c(c(OC)c1C(C)=O)C=CC(C)(C)O2` [Methylevodionol], for which the 50% inhibitory concentration (IC50) with HCV JFH1a (48 h) was above 50 µg/mL. For the same compound, the “Anti-HCV activity in words” value in the data set on HCV JFH1a (Huh7it-1 cells) was “less active; also recorded: did not reveal anti-HCV activities”. In addition, in “Cytotoxicity assay (MTT)”, the 50% cytotoxic concentration (CC50) at 46 h was determined as 310 ± 2.5 µg/mL (≈ 1180 µM). For the same compound, the “IC50 against murine leukemia P-388 cells” value in data set [1] is 11.98 µg/mL (≈ 45.7 µM).

For the compound `Cn1c(=O)c2c(c3ccccc31)OC(C)(C)C=C2` [N-methylflindersine], the figures for the IC50 (in the data set with HCV JFH1a (setting [4]); in data set [3]) were 3.8 ± 2.7 µg/mL (≈ 15.7 µM) and below 12 µM, respectively. The midpoint of cytotoxicity in “Cytotoxicity assay (MTT)”, the CC50 at 46 h, lay at 97 ± 3.3 µg/mL (≈ 402 µM). In addition, the inhibition at 25 µg/mL worked out at 7.7 ± 1.8% in data set [2] (setting [5]), 83 ± 0.8% in data set [2] (setting [6]) and 84.1 ± 2.9% in data set [2] (setting [7]). Also, in data set [2], the Mode of action result is “inhibit HCV in the post-entry step; also recorded: Post-entry inhibition”. Besides, the figures for the “HCV NS3 protein level (western blot)” value with HCV NS3 protein, in the data set with HCV NS3 protein (listed as N-methylflidersine) and in the data set with HCV NS3 protein (listed as N-methylflindersin) were “HCV NS3 protein reduction”, “decreased level of HCV NS3 protein expression” and “decreased HCV NS3 protein level”, respectively. Further, the “LD50 towards brine shrimp larvae” value in the data set on brine shrimp larvae was 1.39 µg/mL. The “IC50 against murine leukemia P-388 cells” value in data set [1] is 21.06 µg/mL (≈ 87.3 µM).

In the case of `COc1c2c(c3c(c1C(C)=O)OC(C)(C)C=C3)OC(C)(C)C=C2` [O-methyloktadrenolon], in the data set on HCV JFH1a (setting [4]), the concentration for half-maximal inhibition (IC50) amounted to 10.9 ± 1.2 µg/mL (≈ 34.7 µM). This compound gave a CC50 at 46 h in the data set “Cytotoxicity assay (MTT)” of 63 ± 2.3 µg/mL (≈ 200 µM). The inhibition at 25 µg/mL in data set [2] (setting [5]) was 9.1 ± 8.5%; in data set [2] (setting [6]), 98.4 ± 0.4%; in data set [2] (setting [7]), 98 ± 0.9%. Also, the Mode of action entry in data set [2] is given as “inhibit HCV in the post-entry step; also recorded: Post-entry inhibition”. Also, the “HCV NS3 protein level (western blot)” value in the data set on HCV NS3 protein was “decreased HCV NS3 protein level”.
